Reference: PMC12193833, “Toxicity Assessment and Antifungal Potential of Copper(II) and Silver(I) Complexes with 1,10-Phenanthroline-5,6-dione Against Drug-Resistant Clinical Isolates of Cryptococcus gattii and Cryptococcus neoformans” (Journal of Fungi, 2025)
Like-named read-outs stand apart in the source and are kept apart here.

Experiments:
[1] = system: C. gattii clinical isolates; experiment: MIC/MFC of test compounds, microdilution; type: cell-based, Cryptococcus gattii; details: for MIC: read-out: MIC
Text: (§1) Six clinical isolates belonging to the Cryptococcus genus were obtained from patients who attended the Instituto Nacional de Infectologia Evandro Chagas (INI), Fundação Oswaldo Cruz (FIOCRUZ), and were kindly provided by Dr. Rodrigo Almeida-Paes (INI-FIOCRUZ). To comply with ethical standards and institutional agreements between UFRJ and FIOCRUZ, patient data were not disclosed. In this sense, the C. neoformans isolates were designated CFP00213 (213), CFP00223 (223), and CFP00350 (350), while the C. gattii isolates were labeled CFP00023 (23), CFP00025 (25), and CFP00027 (27). Before each experiment, an aliquot of the culture was transferred from Sabouraud dextrose agar (2% glucose, 1% peptone, and 0.5% yeast extract) to RPMI 1640 medium (Sigma-Aldrich, St. Louis, MO, USA), pH 7.2, buffered with 0.165 M MOPS (Sigma-Aldrich, St. Louis, MO, USA). RPMI medium induces the expression of capsular polysaccharides, the primary virulence factor of Cryptococcus cells. The cultures were incubated at 37 °C for 48 h to promote cell proliferation, stimulate metabolic activation, and enhance capsular development. Yeast cell counts were determined using a Neubauer chamber.
(§2) Following MIC determination, the MFC was assessed by inoculating 10 µL from wells showing no visible fungal growth onto Sabouraud dextrose agar. […] To further support and strengthen the evidence of the anti-Cryptococcus activity of the Cu-phendione and Ag-phendione complexes, we additionally performed MIC/MFC assays using well-characterized standard reference strains: ATCC 28957, H99, T1444 (all C. neoformans), and R265 (C. gattii).

[2] = system: hemocytes of G. mellonella larvae; type: in vivo, Galleria mellonella; details: 24 h
Description: The hemocyte density in the hemolymph of larvae inoculated with both complexes was assessed to evaluate potential immunological changes in G. mellonella. […] To analyze hemocyte density, a ventral caudal incision was made between the last prolegs of each larva using a surgical scalpel, and 10 μL of hemolymph was collected. The hemolymph was then diluted 1:100 in 990 μL of an anticoagulant buffer solution (98 mM NaOH, 186 mM NaCl, 17 mM EDTA, and 41 mM citric acid, pH 4.5). The number of hemocytes in each dilution was subsequently counted using a Neubauer chamber (Thermo Fisher Scientific, Waltham, MA USA).

[3] = system: C. neoformans reference strains (ATCC 28957, H99, T1444); experiment: MIC of complexes against reference strains; type: cell-based, Cryptococcus neoformans
Text: (§3) To further support and strengthen the evidence of the anti-Cryptococcus activity of the Cu-phendione and Ag-phendione complexes, we additionally performed MIC/MFC assays using well-characterized standard reference strains: ATCC 28957, […], […] (all C. neoformans), and […]).

[4] = system: C. neoformans clinical isolates; experiment: MIC/MFC of test compounds, microdilution; type: cell-based, Cryptococcus neoformans; details: for MIC: read-out: MIC
Text: as §1, §2

mice = system: mice; design: method as in doi:10.1039/c2tx00010e; details: cited from earlier work
[5] = system: C. gattii reference strain R265; experiment: MIC of complexes against reference strain; type: cell-based, Cryptococcus gattii
Text: as §3

[6] = system: Galleria mellonella larvae; experiment: In vivo chronic toxicity, multiple treatment
Description: (§4) In this set of experiments, G. mellonella larvae weighing approximately 0.2–0.3 g and displaying clear, uniform coloration were used. The larvae were inoculated (10 µL/larva) using an insulin syringe (BD Ultra-Fine, Franklin Lakes, NJ, USA) at the last left proleg. […] We also assessed their coloration through visual analysis as an indicator of stress levels. Throughout the experiments, the larvae were maintained at 37 °C [19, 42]. Two distinct treatment protocols were designed to evaluate the effects of the test compounds on larval survivability, as detailed below.
For the chronic toxicity analysis, larvae were inoculated daily for five consecutive days with the test complexes (Cu-phendione or Ag-phendione) at a high concentration of 62.5 μM. Each group consisted of 10 larvae, while the control group received only sterile PBS with 4% DMSO.

Sheep erythrocytes = system: Sheep erythrocytes
Description: To evaluate the hemolytic activity of the test compounds, the microdilution method was performed in PBS using 96-well cell culture plates, as described by Evans et al.. PBS containing the test compounds (phendione, Cu-phendione, and Ag-phendione) at varying concentrations (1.9–62.5 µM) was added to the wells. Sheep erythrocytes (Cultilab, Rio de Janeiro, RJ, Brazil) were diluted in PBS to a final concentration of 2% (approximately 2 × 10^8 erythrocytes) and added to each well. The final volume of each well was 200 μL. A negative control (PBS and blood) and a positive control (PBS, blood, and 1% Triton X-100) were also included. The plates were incubated at 37 °C for 24 h, then centrifuged at 500× g for 10 min at 4 °C. Following centrifugation, 100 μL of the supernatant from each well was transferred to a new 96-well microplate, and absorbance was measured using a microplate reader ([…] SkyHigh; Thermo Scientific, Waltham, MA, USA) at 415 nm. […] The average absorbance of the positive control was set as 100% hemolysis, and the percentage hemolysis of the other groups was calculated accordingly. The selectivity index (SI) was determined using the following equation: SI = erythrocyte CC50/Cryptococcus MIC.

[7] = system: C. neoformans or C. gattii; experiment: Stability of antifungal activity (MIC repeated every six months over two years); type: cell-based, Cryptococcus neoformans and Cryptococcus gattii; details: same DMSO solution, room temperature, protected from light, MIC every six months for 730 days
Text: To evaluate the stability of the antifungal activity of the test complexes, the MIC assay was repeated every six months over a two-year period using the same Ag-phendione or Cu-phendione solution. The solutions were stored at room temperature and protected from light to maintain their chemical integrity.

hamsters = system: hamsters; design: method as in doi:10.1016/j.ejmcr.2022.100093; details: 1 mg/kg five times per week for nine weeks; cited from earlier work
[8] = system: Galleria mellonella larvae; experiment: In vivo acute toxicity, single treatment; details: single inoculation
Description: as §4
For the acute toxicity analysis, the test compounds were administered to the larvae in a single inoculation at concentrations ranging from 1000 to 125 μM. Each group consisted of 10 larvae, while the control group received only sterile PBS with 4% DMSO. […] The SI was calculated using the following equation: SI = G. mellonella CC50/Cryptococcus MIC.

[9] = all C. gattii clinical isolates
[10] = all C. neoformans clinical isolates
[11] = 62.5 µM daily for five consecutive days

In the case of `O.O.O.O.O=C1C(=O)c2cccnc2-c2ncccc21.O=C1C(=O)c2cccnc2-c2ncccc21.O=C1C(=O)c2cccnc2-c2ncccc21.[Cu+2].[O-][Cl+3]([O-])([O-])[O-].[O-][Cl+3]([O-])([O-])[O-]` [Cu-phendione, [Cu(phendione)3](ClO4)2·4H2O], the MFC ([1]; C. gattii isolate 23) is reported as 12.5 µM, the MIC ([1]; C. gattii isolate 23) is reported as 6.25 µM and the MFC ([1]; C. gattii isolate 25) is reported as 12.5 µM. It also gave an MIC ([1]; C. gattii isolate 25) of 6.25 µM, an MFC ([1]; C. gattii isolate 27) of 12.5 µM and an MIC ([1]; C. gattii isolate 27) of 6.25 µM. For the same compound, the MFC [1, 9] was 12.5 µM, the MIC [1, 9] was 6.25 µM and the “Hemocyte density vs PBS control” value ([2]; single inoculation 15.625 µM) was “significant increase in hemocyte density”. For the same compound, the “Hemocyte density vs PBS control” value ([2]; single inoculation 31.25 µM) was “significant increase in hemocyte density”, the “Hemocyte density vs PBS control” value ([2]; single inoculation, other tested concentrations) was “No notable changes in hemocyte levels” and the MIC ([3]; C. neoformans ATCC 28957) was 1.56 µM. For the same compound, the MIC ([3]; C. neoformans H99) was 0.78 µM, the MIC ([3]; C. neoformans T1444) was 0.78 µM and the MFC ([4]; C. neoformans isolate 213) was 50 µM. It also gave an MIC ([4]; C. neoformans isolate 213) of 3.125 µM, an MFC ([4]; C. neoformans isolate 223) of 50 µM and an MIC ([4]; C. neoformans isolate 223) of 3.125 µM. The MFC ([4]; C. neoformans isolate 350) was 50 µM, the MIC ([4]; C. neoformans isolate 350) was 3.125 µM and the MFC [4, 10] was 50 µM. For the same compound, the MIC [4, 10] was 3.125 µM, the “Deaths, behavioral, dietary or body weight changes” value (mice; 45 mg/kg daily for five days plus seven days observation) was “no deaths or behavioral, dietary, or body weight changes” and the “AST and ALT activities vs control” value (mice; 45 mg/kg daily for five days) was “No significant differences”. The “Acute toxicity: highest dose with 100% tolerance” value (mice; acute) was 45 mg/kg, the MIC [5] was 0.19 µM and the “Alterations in stress indicators (melanization, cocoon formation)” value [6, 11] was “no alterations”. For the same compound, the “Chronic toxicity (larval survival monitored over seven days)” value [6, 11] was “non-toxic”, the Larval survival ([6]; daily inoculation 62.5 µM for up to five days) was 100% and the CC50 (Sheep erythrocytes) was over 62.5 µM. For the same compound, the “Stability of antifungal activity (MIC variation)” value [7] was “No variation in MIC values”, the “Deaths, changes in behavior, diet or body weight” value (hamsters) was “no deaths or changes in behavior, diet, or body weight” and the “Urea, creatinine, AST, ALT and alkaline phosphatase levels vs control” value (hamsters) was “no differences”. For the same compound, the CC50 ([8]; assumed, read-out: CC50 (G. mellonella larvae)) was over 1000 µM, the “Changes in melanization or silk/cocoon production” value [8] was “no visible changes in melanization or silk/cocoon production” and the Larval survival ([8]; 125–1000 µM, 10 µL/larva, 37 °C) was 100%.
